Oligonucleotides are written 5' to 3', each unit as a sugar letter and its base; * is a phosphorothioate linkage, no mark a phosphodiester; rarer units and linkages stand in square brackets, end groups in braces. Plain capitals give the bases only. k = constrained ethyl (cEt); [5mC] = 5-methylcytosine; d = 2'-deoxy (DNA)
System: AR mRNA
Assay: Dose-dependent antisense inhibition of human AR in HuVEC cells (electroporation, qRT-PCR RTS3559, IC50)
Format: cell-based
Outline: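 HuVEC cells dosed with antisense oligonucleotides by electroporation and treated approximately 16 hours. AR mRNA quantified by real-time qPCR with primer probe set RTS3559 and normalised to total RNA by RIBOGREEN; IC50 from dose-response.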

In the case of “549372 (kA*kA*kG*dT*dT*dG*dT*dA*dG*dT*dA*dG*dT*k[5mC]*kG*k[5mC]) [compound 549372]”, the “percent inhibition of AR” value (31.25 nM, HuVEC, ~16 h, Table 14) is reported as 2%, the “percent inhibition of AR” value (46.9 nM, HuVEC, ~16 h, Table 15) is reported as 9% and the “percent inhibition of AR” value (55.6 nM, HuVEC, ~16 h, Table 3) is reported as 22%. For the same substance, the “percent inhibition of AR” value (62.5 nM, HuVEC, ~16 h, Table 14) was 17%, the “percent inhibition of AR” value (125.0 nM, HuVEC, ~16 h, Table 14) was 31% and the “percent inhibition of AR” value (166.7 nM, HuVEC, ~16 h, Table 3) was 51%. The “percent inhibition of AR” value (187.5 nM, HuVEC, ~16 h, Table 15) was 41%, the “percent inhibition of AR” value (500.0 nM, HuVEC, ~16 h, Table 3) was 85% and the “percent inhibition of AR” value (500.0 nM, HuVEC, ~16 h, Table 14) was 61%. The “percent inhibition of AR” value (750.0 nM, HuVEC, ~16 h, Table 15) was 66%, the “percent inhibition of AR” value (1000.0 nM, HuVEC, ~16 h, Table 14) was 80% and the “percent inhibition of AR” value (1500.0 nM, HuVEC, ~16 h, Table 3) was 89%. The “percent inhibition of AR” value (3000.0 nM, HuVEC, ~16 h, Table 15) was 87%, the IC50 (HuVEC cells, electroporation) was 290 nM and the “inhibition of AR mRNA at 46.9 nM” value (HuVEC cells, electroporation, 46.9 nM ASO) was 9%. For the same substance, the “inhibition of AR mRNA at 187.5 nM” value (HuVEC cells, electroporation, 187.5 nM ASO) was 41%, the “inhibition of AR mRNA at 750.0 nM” value (HuVEC cells, electroporation, 750.0 nM ASO) was 66% and the “inhibition of AR mRNA at 3000.0 nM” value (HuVEC cells, electroporation, 3000.0 nM ASO) was 87%. It also gave an IC50 (HuVEC, ~16 h, Table 3) of 150 nM, an IC50 (HuVEC, ~16 h, Table 14) of 271 nM and an IC50 (HuVEC, ~16 h, Table 15) of 290 nM. The “percent inhibition of AR, 46.9 nM” value (Table 29, 46.9 nM, HuVEC, electroporation, approximately 16 hours) was 7%, the “percent inhibition of AR, 187.5 nM” value (Table 29, 187.5 nM, HuVEC, electroporation, approximately 16 hours) was 41% and the “percent inhibition of AR, 750.0 nM” value (Table 29, 750.0 nM, HuVEC, electroporation, approximately 16 hours) was 70%. The “percent inhibition of AR, 3000.0 nM” value (Table 29, 3000.0 nM, HuVEC, electroporation, approximately 16 hours) was 91%, the IC50 (Table 29, HuVEC, electroporation, approximately 16 hours) was 320 nM and the “percent inhibition of AR, 46.9 nM” value (Table 30, 46.9 nM, HuVEC, electroporation, approximately 16 hours) was 13%. The “percent inhibition of AR, 187.5 nM” value (Table 30, 187.5 nM, HuVEC, electroporation, approximately 16 hours) was 29%, the “percent inhibition of AR, 750.0 nM” value (Table 30, 750.0 nM, HuVEC, electroporation, approximately 16 hours) was 69% and the “percent inhibition of AR, 3000.0 nM” value (Table 30, 3000.0 nM, HuVEC, electroporation, approximately 16 hours) was 90%. For the same substance, the IC50 (Table 30, HuVEC, electroporation, approximately 16 hours) was 370 nM, the “percent inhibition of AR, 46.9 nM” value (Table 31, 46.9 nM, HuVEC, electroporation, approximately 16 hours) was 5% and the “percent inhibition of AR, 187.5 nM” value (Table 31, 187.5 nM, HuVEC, electroporation, approximately 16 hours) was 36%. For the same substance, the “percent inhibition of AR, 750.0 nM” value (Table 31, 750.0 nM, HuVEC, electroporation, approximately 16 hours) was 69%, the “percent inhibition of AR, 3000.0 nM” value (Table 31, 3000.0 nM, HuVEC, electroporation, approximately 16 hours) was 88% and the IC50 (Table 31, HuVEC, electroporation, approximately 16 hours) was 360 nM. For the same substance, the “percent inhibition of AR, 46.9 nM” value (Table 32, 46.9 nM, HuVEC, electroporation, approximately 16 hours) was 15%, the “percent inhibition of AR, 187.5 nM” value (Table 32, 187.5 nM, HuVEC, electroporation, approximately 16 hours) was 39% and the “percent inhibition of AR, 750.0 nM” value (Table 32, 750.0 nM, HuVEC, electroporation, approximately 16 hours) was 70%. For the same substance, the “percent inhibition of AR, 3000.0 nM” value (Table 32, 3000.0 nM, HuVEC, electroporation, approximately 16 hours) was 86%, the IC50 (Table 32, HuVEC, electroporation, approximately 16 hours) was 300 nM and the “percent inhibition of AR, 46.9 nM” value (Table 33, 46.9 nM, HuVEC, electroporation, approximately 16 hours) was 14%. The “percent inhibition of AR, 187.5 nM” value (Table 33, 187.5 nM, HuVEC, electroporation, approximately 16 hours) was 33%, the “percent inhibition of AR, 750.0 nM” value (Table 33, 750.0 nM, HuVEC, electroporation, approximately 16 hours) was 64% and the “percent inhibition of AR, 3000.0 nM” value (Table 33, 3000.0 nM, HuVEC, electroporation, approximately 16 hours) was 90%. For the same substance, the IC50 (Table 33, HuVEC, electroporation, approximately 16 hours) was 340 nM, the “percent inhibition of AR, 46.9 nM” value (Table 34, 46.9 nM, HuVEC, electroporation, approximately 16 hours) was 14% and the “percent inhibition of AR, 187.5 nM” value (Table 34, 187.5 nM, HuVEC, electroporation, approximately 16 hours) was 36%. For the same substance, the “percent inhibition of AR, 750.0 nM” value (Table 34, 750.0 nM, HuVEC, electroporation, approximately 16 hours) was 64%, the “percent inhibition of AR, 3000.0 nM” value (Table 34, 3000.0 nM, HuVEC, electroporation, approximately 16 hours) was 88% and the IC50 (Table 34, HuVEC, electroporation, approximately 16 hours) was 320 nM. The “percent inhibition of AR, 46.9 nM” value (Table 35, 46.9 nM, HuVEC, electroporation, approximately 16 hours) was 0%, the “percent inhibition of AR, 187.5 nM” value (Table 35, 187.5 nM, HuVEC, electroporation, approximately 16 hours) was 28% and the “percent inhibition of AR, 750.0 nM” value (Table 35, 750.0 nM, HuVEC, electroporation, approximately 16 hours) was 64%. The “percent inhibition of AR, 3000.0 nM” value (Table 35, 3000.0 nM, HuVEC, electroporation, approximately 16 hours) was 88%, the IC50 (Table 35, HuVEC, electroporation, approximately 16 hours) was 420 nM and the “percent inhibition of AR, 46.9 nM” value (Table 36, 46.9 nM, HuVEC, electroporation, approximately 16 hours) was 2%. For the same substance, the “percent inhibition of AR, 187.5 nM” value (Table 36, 187.5 nM, HuVEC, electroporation, approximately 16 hours) was 26%, the “percent inhibition of AR, 750.0 nM” value (Table 36, 750.0 nM, HuVEC, electroporation, approximately 16 hours) was 61% and the “percent inhibition of AR, 3000.0 nM” value (Table 36, 3000.0 nM, HuVEC, electroporation, approximately 16 hours) was 85%. For the same substance, the IC50 (Table 36, HuVEC, electroporation, approximately 16 hours) was 420 nM.

Source: patent USRE48461E1, “Modulation of androgen receptor expression” (Ionis Pharmaceuticals, Inc., priority 2012, dated 2021)
